Results on 10 compounds are retold here after ChEMBL document CHEMBL1201862, “PubChem BioAssay data set” (2004).

Holding throughout (test): DTP human tumour cell line panel, 48 h
In assay [1] the test system is SR.
Assay [2] deals with HOP-92.
In assay [3] the test system is SK-MEL-2.
Assay [4] deals with SK-OV-3.
Assay [5] deals with SW-620.
In assay [6] the test system is COLO 205.
The test system of assay [7] is MDA-MB-231.
Assay [8] has as its system RXF 393.
Assay [9] concerns EKVX.
The subject of assay [10] is UO-31.
The subject of assay [11] is OVCAR-8.
For assay [12], the system named is NCI/ADR-RES.
For assay [13], the system named is UACC-257.
Assay [14] has as its system DU-145.
Assay [15] deals with NCI-H226.
Assay [16] relates to PC-3.
The subject of assay [17] is NCI-H23.
Assay [18] relates to Malme-3M.
Assay [19] relates to T47D.
Assay [20] deals with SK-MEL-28.

Broadly, the GI50 is the concentration at which growth is held to half of that of the control.

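Cells were grown in 96-well plates and exposed to each compound for 48 hours at five concentrations; endpoints were interpolated linearly between bracketing concentrations, or set to the highest concentration if not reached. GI50 is the concentration that inhibits growth by half.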 Calls of active or inactive are those of the source. Rule as the data show it: active = GI50 up to about 1.1 µM and inactive = higher. A value given as a limit tells only on which side of the number the result lay.

Consider `CSc1ncnc2c1ncn2CC(=O)C1CCC2C3CCC4=CC(=O)CCC4(C)C3CCC12C` (stereo not drawn), for which the GI50 in assay [1] was 2.16 µM (inactive); in [2], 14.8 µM (inactive); in assay [3] it was 2.98 µM (inactive); in [4] it was 16.3 µM (inactive); in assay [5] it was 9.16 µM (inactive); in assay [6], 3.41 µM (inactive). Moreover, the GI50 is 6.64 µM (inactive) in assay [7]; 12 µM (inactive) in assay [8]; 5.55 µM (inactive) in [9]; 0.757 µM (active) in assay [10]; 3.53 µM (inactive) in assay [11]; 2.5 µM (inactive) in assay [12]. Further, the GI50 was 2.05 µM (inactive) in assay [13]; 13.9 µM (inactive) in [14]; 5.85 µM (inactive) in [15]; 2.57 µM (inactive) in assay [16]; 3.79 µM (inactive) in [17]; 7.16 µM (inactive) in assay [18]. Moreover, the figures for the GI50 in assay [19] and in assay [20] were 1.91 µM (inactive) and 5.47 µM (inactive), respectively.
As for `COc1cc(C/N=c2/nc(N(C)C)ss2)cc(OC)c1OC`, the GI50 in assay [1] was 0.358 µM (active); in assay [2] it was > 10 µM (inactive); in assay [4], > 10 µM (inactive); in assay [5], 5.6 µM (inactive); in assay [6], > 10 µM (inactive); in assay [7] it was > 10 µM (inactive). For the same compound, the GI50 in [8] is > 10 µM (inactive); in [9] it was > 10 µM (inactive); in [10] it was > 10 µM (inactive); in [11], > 4.99 µM (inactive); in [12], > 10 µM (inactive); in assay [13], > 10 µM (inactive). The GI50 is > 10 µM (inactive) in [14]; > 10 µM (inactive) in [15]; > 10 µM (inactive) in assay [16]; > 10 µM (inactive) in assay [17]; > 5.15 µM (inactive) in assay [18]; > 10 µM (inactive) in assay [19]. Moreover, the GI50 in assay [20] is > 7.31 µM (inactive).
With `COC(=O)C(Cc1ccccc1)NC(=O)C(CCC(=O)OCc1ccccc1)NC(=O)OC(C)(C)C` (stereo not drawn), the GI50 in [1] is 27.2 µM (inactive); in assay [2], > 100 µM (inactive); in [3], > 100 µM (inactive); in assay [4] it was > 100 µM (inactive); in assay [5], 63.8 µM (inactive); in assay [6] it was > 100 µM (inactive). The GI50 in assay [7] was 48.1 µM (inactive); in assay [8] it was > 100 µM (inactive); in assay [9] it was > 100 µM (inactive); in assay [10] it was 26.1 µM (inactive); in [11] it was > 100 µM (inactive); in assay [12], > 100 µM (inactive). The GI50 in assay [13] was > 100 µM (inactive); in [14], > 100 µM (inactive); in assay [15], 57.4 µM (inactive); in [16], 81.7 µM (inactive); in assay [17] it was > 100 µM (inactive); in assay [18], > 100 µM (inactive). For the same compound, the GI50 in assay [19] and in assay [20] was > 100 µM (inactive) each time.
Consider `COc1ccc(-c2cc(-c3ccccc3)[nH]c(=S)c2C#N)cc1`, for which the GI50 in assay [1] is 32.6 µM (inactive); in assay [2] it was 44.3 µM (inactive); in assay [4] it was 30.8 µM (inactive); in assay [5] it was 33 µM (inactive); in [6], > 10 µM (inactive); in assay [7], 32.4 µM (inactive). Also, the GI50 in [8] was 39.8 µM (inactive); in assay [9] it was 55.8 µM (inactive); in assay [10], 20.6 µM (inactive); in [11], 29.8 µM (inactive); in assay [12], 39.1 µM (inactive); in assay [14], 52.2 µM (inactive). The GI50 was 31.4 µM (inactive) in [15]; 19.9 µM (inactive) in [16]; 21.8 µM (inactive) in assay [17]; 32.4 µM (inactive) in assay [18]; 8.63 µM (inactive) in [19]; 20 µM (inactive) in assay [20].
For the compound `OC(NN=C1CCCC1)(C(F)(F)Cl)C(F)(F)Cl`, the GI50 in [1], in assay [2], in [3], in assay [4], in assay [5] and in [6] was > 10 µM (inactive) each time. The GI50 in [7], in assay [8], in assay [9], in [11], in assay [12] and in assay [13] was > 10 µM (inactive) in each case. The GI50 in assay [14], in [15], in assay [16], in [17], in [18] and in [19] was > 10 µM (inactive) in each case. For the same compound, the GI50 in assay [20] was > 10 µM (inactive).
Turning to `Cc1ccc2c(c1)C(=O)C(C1OC(=O)c3ccccc31)C2` (stereo not drawn), the GI50 is 74.5 µM (inactive) in assay [1]; > 100 µM (inactive) in assay [2]; > 100 µM (inactive) in [3]; > 100 µM (inactive) in [4]; > 100 µM (inactive) in assay [5]; 56.2 µM (inactive) in assay [6]. For the same compound, the GI50 in assay [7] is > 100 µM (inactive); in assay [8], 43.8 µM (inactive); in assay [9] it was > 100 µM (inactive); in assay [10], > 100 µM (inactive); in assay [11] it was > 100 µM (inactive); in assay [12], 33.7 µM (inactive). Besides, the GI50 in assay [13] was > 100 µM (inactive); in [14] it was > 100 µM (inactive); in assay [15] it was 30.5 µM (inactive); in assay [16], 93.5 µM (inactive); in [17], > 100 µM (inactive); in assay [18], > 100 µM (inactive). The GI50 is 76.9 µM (inactive) in assay [19] and > 100 µM (inactive) in assay [20].
Regarding `CC1(C)O[C@@H]2[C@@H]3OC(=O)C[C@@H]3[C@@H](COCc3ccccc3)[C@@H]2O1`, the GI50 in assay [1], in [2], in [3], in [4], in assay [5] and in assay [6] was > 100 µM (inactive) in each case. For the same compound, the GI50 in assay [7], in assay [8], in [9], in assay [10], in assay [11] and in assay [12] was > 100 µM (inactive) throughout. Further, the GI50 in assay [13], in assay [14], in [15], in [16], in assay [17] and in [18] was > 100 µM (inactive) throughout. Besides, the GI50 in [19] and in assay [20] was > 100 µM (inactive) each time.
In the case of `Cc1ccc(O)c(-c2cc(-c3cccc(Cl)c3)c(C#N)c(N)n2)c1`, the GI50 in assay [1] is 10.7 µM (inactive); in assay [2] it was 13.1 µM (inactive); in assay [3] it was 13.2 µM (inactive); in assay [4], 21.4 µM (inactive); in assay [5], 17.2 µM (inactive); in [6] it was 15.7 µM (inactive). The GI50 in assay [7] is 20.7 µM (inactive); in assay [8], 19.3 µM (inactive); in [9], 14 µM (inactive); in [10], 18 µM (inactive); in [11], 31 µM (inactive); in assay [12], 24.7 µM (inactive). Also, the GI50 is 44.5 µM (inactive) in assay [14]; 18.7 µM (inactive) in assay [15]; 23.3 µM (inactive) in assay [16]; 25.1 µM (inactive) in assay [17]; 17.5 µM (inactive) in [18]; 29.9 µM (inactive) in assay [19].
Regarding `CC(C)CCCC(C)[C@H]1CC[C@H]2n3c(nc4ccccc43)CCC[C@]12C` (stereo partly drawn), the GI50 was 15.8 µM (inactive) in assay [1]; 17.7 µM (inactive) in assay [2]; 17.2 µM (inactive) in assay [3]; 17.1 µM (inactive) in [4]; 17.7 µM (inactive) in assay [5]; 11.1 µM (inactive) in assay [6]. Moreover, the GI50 in assay [7] was 16 µM (inactive); in [8], 16.4 µM (inactive); in assay [10] it was 14.3 µM (inactive); in assay [11], 17.1 µM (inactive); in assay [12], 18.2 µM (inactive); in assay [13] it was 20 µM (inactive). Besides, the GI50 in [14] was 22 µM (inactive); in [15] it was 15.6 µM (inactive); in [16], 18.6 µM (inactive); in [17], 16.9 µM (inactive); in [18] it was 21.9 µM (inactive); in assay [19], 15.4 µM (inactive). Also, the GI50 in assay [20] is 18.6 µM (inactive).
`CN(C)/C=C/c1c2c(nc3ccccc13)C(=O)c1ccccc1C2=O`: the GI50 in [1] was 0.449 µM (active); in assay [2] it was 1.95 µM (inactive); in [3], 1.12 µM (active); in assay [4], 3.91 µM (inactive); in assay [5] it was 1.62 µM (inactive); in assay [6], 1.79 µM (inactive). For the same compound, the GI50 in [7] was 1.55 µM (inactive); in assay [8], 3.2 µM (inactive); in assay [9], 1.89 µM (inactive); in assay [10], 1.82 µM (inactive); in assay [11], 1.63 µM (inactive); in assay [12], 1.71 µM (inactive). For the same compound, the GI50 is 0.498 µM (active) in assay [13]; 1.38 µM (inactive) in [14]; 1.15 µM (inactive) in [15]; 0.752 µM (active) in assay [16]; 0.194 µM (active) in assay [17]; 0.71 µM (active) in assay [18]. Besides, the figures for the GI50 in assay [19] and in assay [20] were 1.41 µM (inactive) and 0.222 µM (active), respectively.
